Laboratory results taken from patent US8822523B2, “Carboxamide microbiocides” (Syngenta Participations AG, priority 2011, dated 2014).

Experiments:
Puccinia recondita [1] = assay: Puccinia recondita / wheat / leaf disc preventative (brown rust); type: in vivo; settings: foliar, 200 ppm active ingredient, wheat leaf segments, preventive, assessed 8 dpi, read-out: fungal growth inhibition
Procedure: Puccinia recondita/Wheat/Leaf Disc Preventative (Brown Rust)
Wheat leaf segments were placed on agar in multiwell plates (24-well format) and sprayed with test solutions (200 ppm active ingredient). After drying, the leaf disks were inoculated with a spore suspension of the fungus. After appropriate incubation the activity of a compound was assessed 8 dpi (days after inoculation) as preventive fungicidal activity. The activity of a compound was expressed as fungal growth inhibition (0=no growth inhibition, ratings of 80% to 99% mean good to very good inhibition, 100%=complete inhibition).

[2] = test system: Mycosphaerella arachidis (Cercospora arachidicola); assay: Mycosphaerella arachidis (Cercospora arachidicola) / liquid culture (early leaf spot); type: cell-based; settings: 200 ppm active ingredient, PDB potato dextrose broth, 24° C., photometrically after 6-7 days, read-out: fungal growth inhibition
Procedure: Mycosphaerella arachidis (Cercospora arachidicola)/Liquid Culture (Early Leaf Spot)
Conidia of the fungus from cryogenic storage were directly mixed into nutrient broth (PDB potato dextrose broth). After placing a (DMSO) solution of the test compounds (200 ppm active ingredient) into a microtiter plate (96-well format) the nutrient broth containing the fungal spores was added. The test plates were incubated at 24° C. and the inhibition of growth was measured photometrically after 6-7 days. The activity of a compound was expressed as fungal growth inhibition (0=no growth inhibition, ratings of 80% to 99% mean good to very good inhibition, 100%=complete inhibition).

[3] = test system: Mycosphaerella graminicola (Septoria tritici); assay: Mycosphaerella graminicola (Septoria tritici) / liquid culture (Septoria blotch); type: cell-based; settings: Zymoseptoria tritici, 96 h; 200 ppm active ingredient, PDB potato dextrose broth, 24° C., photometrically after 4 days; read-out: fungal growth inhibition
Procedure: Mycosphaerella graminicola (Septoria tritici)/Liquid Culture (Septoria blotch)
Conidia of the fungus from cryogenic storage were directly mixed into nutrient broth (PDB potato dextrose broth). After placing a (DMSO) solution of the test compounds (200 ppm active ingredient) into a microtiter plate (96-well format) the nutrient broth containing the fungal spores was added. The test plates were incubated at 24° C. and the inhibition of growth was measured photometrically after 4 days. The activity of a compound was expressed as fungal growth inhibition (0=no growth inhibition, ratings of 80% to 99% mean good to very good inhibition, 100%=complete inhibition).

Puccinia recondita [4] = assay: Puccinia recondita / wheat / leaf disc curative (brown rust); type: in vivo; settings: foliar, 24 h, 200 ppm active ingredient applied one day after inoculation, wheat leaf segments, assessed 8 dpi, read-out: fungal growth inhibition
Procedure: Puccinia recondita/Wheat/Leaf Disc Curative (Brown Rust)
Wheat leaf segments were placed on agar in multiwell plates (24-well format). The leaf disks were then inoculated with a spore suspension of the fungus One day after inoculation the test solution was applied (200 ppm active ingredient). After appropriate incubation the activity of a compound was assessed 8 dpi (days after inoculation) as curative fungicidal activity. The activity of a compound was expressed as fungal growth inhibition (0=no growth inhibition, ratings of 80% to 99% mean good to very good inhibition, 100%=complete inhibition).

Measured: inhibition at 200 ppm

Cn1cc(C(=O)NOCC2CCCCc3cc(C#CC(C)(C)C)sc32)c(C(F)F)n1 (stereo not shown) [Compound 2.47, 3-Difluoromethyl-1-methyl-1H-pyrazole-4-carboxylic acid [2-(3,3-dimethylbut-1-ynyl)-5,6,7,8-tetrahydro-4H-cyclohepta[b]thiophen-8-yl]methoxy amide]
≥ 80%: all assays above
